Measured values as given in patent US7807701B2, “Dibenzylamine compounds and pharmaceutical use thereof” (Japan Tobacco Inc., priority 2002, dated 2010).
Counter-ions that a name gives are not always drawn.

What follows are compounds tested against T1, CETP (Homo sapiens, UniProt P11597) (assay: Inhibitory effect in vitro on CETP activity in total plasma). Conditions: plasma of healthy subject with [3H]CE-HDL3, 37° C., 4 hr; average values.
T1 construct: The donor lipoprotein obtained above was added to plasma of healthy subject; from tissue; host or cells: whole plasma of healthy subject
T1 sequence (P11597 18-493): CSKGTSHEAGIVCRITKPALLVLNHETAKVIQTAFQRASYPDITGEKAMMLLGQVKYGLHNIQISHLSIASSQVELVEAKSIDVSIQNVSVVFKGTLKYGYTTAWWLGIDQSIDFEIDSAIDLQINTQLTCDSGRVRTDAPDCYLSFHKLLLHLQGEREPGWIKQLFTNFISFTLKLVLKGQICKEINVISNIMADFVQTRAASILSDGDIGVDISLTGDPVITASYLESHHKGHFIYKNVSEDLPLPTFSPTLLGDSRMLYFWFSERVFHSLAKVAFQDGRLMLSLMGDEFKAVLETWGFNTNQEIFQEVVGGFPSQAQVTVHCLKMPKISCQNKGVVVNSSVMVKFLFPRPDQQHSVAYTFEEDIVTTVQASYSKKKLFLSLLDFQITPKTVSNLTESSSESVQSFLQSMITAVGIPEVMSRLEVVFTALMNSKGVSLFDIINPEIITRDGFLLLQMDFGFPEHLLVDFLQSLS
Format: biochemical
Experimental: Potassium bromide (KBr) was added to plasma (40 mL) of healthy subject and the mixture was adjusted to have a specific density d=1.125 g/mL. The mixture was subjected to density gradient centrifugation (227,000×g, 4° C., 17 hr) and a fraction showing a specific density of d>1.125 g/mL (HDL3 fraction) was harvested. The obtained fraction was dialyzed against PBS solution [10 mmol/L Na2HPO4; 10 mmol/L NaH2PO4; 0.15 mol/L NaCl; […] (pH 7.4)]. Then, tritium-labeled cholesterol (37 MBq) was dissolved in 95% ethanol, gradually added to the above-mentioned HDL3 fraction with stirring and incubated at 37° C. for 18 hr. [By this operation, tritium-labeled cholesterol was esterified by the action of lecithin acyl transferase (LCAT) present on the HDL3 surface and taken up into HDL3 as tritium-labeled cholesteryl ester ([^3H]CE)]. After incubation, KBr was added, the mixture was adjusted to have a specific density d=1.21 g/mL, subjected to density gradient centrifugation (227,000×g, 4° C., 17 hr) and a fraction of specific density […] was harvested. The obtained fraction was dialyzed against the aforementioned PBS solution to give HDL3 incorporating [^3H]CE ([^3H]CE-HDL3, specific density: 1.125<d<1.21, specific activity: 10,000 dpm/μL), which was used as a donor lipoprotein.
The donor lipoprotein obtained above was added to plasma of healthy subject to prepare a [^3H]CE-HDL3-containing plasma (1,000 dpm/μL). The compound was dissolved in dimethyl formamide. A solution of the compound or a solvent alone (2 μL) and the [^3H]CE-HDL3-containing plasma (100 μL) were added into a microtube, and this was incubated at 37° C. or 4° C. for 4 hr. After ice-cooling, TBS solution [100 μL, 20 mmol/L Tris; 0.15 mol/L NaCl (pH 7.4)] containing 1 mol/L magnesium chloride and 2% dextran sulfate was added to each microtube and the mixture was thoroughly stirred. After keeping at 4° C. for 30 min, the mixture was centrifuged (10,000×g, 4° C., 10 min), and the radioactivity in the obtained supernatant (HDL fraction) was measured with a scintillation counter. […] The concentration of the compound necessary for inhibiting the CETP activity by 50% was calculated as an IC50 value.

SMILES	IC50 [nM]
CCN(C[C@H]1CC[C@H](C(=O)O)CC1)c1cc2c(cc1CN(Cc1cc(C(F)(F)F)cc(C(F)(F)F)c1)c1cc(C)no1)CCC2 [Example 53, trans-4-{[N-(6-{[N′-[3,5-bis(trifluoromethyl)benzyl]-N′-(3-methylisoxazol-5-yl)amino]methyl}indan-5-yl)-N-ethylamino]methyl}cyclohexanecarboxylic acid hydrochloride]	700
CCN(CCCCC(=O)OC)c1cc2c(cc1CN(Cc1cc(C#N)cc(C(F)(F)F)c1)c1ccn(C)n1)CCC2 [Example 55, methyl 5-[N-(6-{[N′-(3-cyano-5-trifluoromethylbenzyl)-N′-(1-methyl-1H-pyrazol-3-yl)amino]methyl}indan-5-yl)-N-ethylamino]pentanoate hydrochloride]	770
CCN(CCCCC(=O)O)c1cc2c(cc1CN(Cc1cc(C(F)(F)F)cc(C(F)(F)F)c1)c1ncn(C)n1)CCC2 [Example 58, 5-[N-(6-{[N′-[3,5-bis(trifluoromethyl)benzyl]-N′-(1-methyl-1H-[1,2,4]triazol-3-yl)amino]methyl}indan-5-yl)-N-ethylamino]pentanoic acid hydrochloride]	715
CCN(C[C@H]1CC[C@H](C(=O)O)CC1)c1cc2c(cc1CN(Cc1cc(C#N)cc(C(F)(F)F)c1)c1ncn(C)n1)CCC2 [Example 60, trans-4-{[N-(6-{[N′-(3-cyano-5-trifluoromethylbenzyl)-N′-(1-methyl-1H-[1,2,4]triazol-3-yl)amino]methyl}indan-5-yl)-N-ethylamino]methyl}cyclohexanecarboxylic acid]	780
CCN(CCCCC(=O)OC)c1cc2c(cc1CN(Cc1cc(C(F)(F)F)cc(C(F)(F)F)c1)c1ccn(C)n1)CCCC2 [Example 63, methyl 5-[N-(3-{[N′-[3,5-bis(trifluoromethyl)benzyl]-N′-(1-methyl-1H-pyrazol-3-yl)amino]methyl}-5,6,7,8-tetrahydronaphthalen-2-yl)-N-ethylamino]pentanoate hydrochloride]	640
CCN(CCCCC(=O)OC)c1cc2c(cc1CN(Cc1cc(C#N)cc(C(F)(F)F)c1)c1ccn(C)n1)CCCC2 [Example 64, methyl 5-[N-(3-{[N′-(3-cyano-5-trifluoromethylbenzyl)-N′-(1-methyl-1H-pyrazol-3-yl)amino]methyl}-5,6,7,8-tetrahydronaphthalen-2-yl)-N-ethylamino]pentanoate hydrochloride]	750
CCN(CCCCC(=O)O)c1cc2c(cc1CN(Cc1cc(C#N)cc(C(F)(F)F)c1)c1ccn(C)n1)CCCC2 [Example 66, 5-[N-(3-{[N′-(3-cyano-5-trifluoromethylbenzyl)-N′-(1-methyl-1H-pyrazol-3-yl)amino]methyl}-5,6,7,8-tetrahydronaphthalen-2-yl)-N-ethylamino]pentanoic acid hydrochloride]	870
CCN(C[C@H]1CC[C@H](C(=O)O)CC1)c1cc2c(cc1CN(Cc1cc(C#N)cc(C(F)(F)F)c1)c1ncn(C)n1)CCCC2 [Example 70, trans-4-{[N-(3-{[N′-(3-cyano-5-trifluoromethylbenzyl)-N′-(1-methyl-1H-[1,2,4]triazol-3-yl)amino]methyl}-5,6,7,8-tetrahydronaphthalen-2-yl)-N-ethylamino]methyl}cyclohexanecarboxylic acid]	540

These reach a lower IC50. Values come first.

IC50 [nM]	SMILES
440	CCN(C[C@H]1CC[C@H](C(=O)O)CC1)c1cc2c(cc1CN(Cc1cc(C(F)(F)F)cc(C(F)(F)F)c1)c1cc(C)no1)CCCC2 [Example 71, trans-4-{[N-(3-{[N′-[3,5-bis(trifluoromethyl)benzyl]-N′-(3-methylisoxazol-5-yl)amino]methyl}-5,6,7,8-tetrahydronaphthalen-2-yl)-N-ethylamino]methyl}cyclohexanecarboxylic acid hydrochloride]
430	CCN(C[C@H]1CC[C@H](C(=O)O)CC1)c1cc2c(cc1CN(Cc1cc(C(F)(F)F)cc(C(F)(F)F)c1)c1ncn(C)n1)CCC2 [Example 59, trans-4-{[N-(6-{[N′-[3,5-bis(trifluoromethyl)benzyl]-N′-(1-methyl-1H-[1,2,4]triazol-3-yl)amino]methyl}indan-5-yl)-N-ethylamino]methyl}cyclohexanecarboxylic acid hydrochloride]
410	CCN(C[C@H]1CC[C@H](C(=O)O)CC1)c1cc2c(cc1CN(Cc1cc(C(F)(F)F)cc(C(F)(F)F)c1)c1nnn(C)n1)CCC2 [Example 51, trans-4-{[N-(6-{[N′-[3,5-bis(trifluoromethyl)benzyl]-N′-(2-methyl-2H-tetrazol-5-yl)amino]methyl}indan-5-yl)-N-ethylamino]methyl}cyclohexanecarboxylic acid hydrochloride]
390	CCN(C[C@H]1CC[C@H](C(=O)O)CC1)c1cc2c(cc1CN(Cc1cc(C#N)cc(C(F)(F)F)c1)c1cc(C)no1)CCCC2 [Example 72, trans-4-{[N-(3-{[N′-(3-cyano-5-trifluoromethylbenzyl)-N′-(3-methylisoxazol-5-yl)amino]methyl}-5,6,7,8-tetrahydronaphthalen-2-yl)-N-ethylamino]methyl}cyclohexanecarboxylic acid hydrochloride]
370	CCN(C[C@H]1CC[C@H](C(=O)O)CC1)c1cc2c(cc1CN(Cc1cc(C#N)cc(C(F)(F)F)c1)c1nnn(C)n1)CCC2 [Example 52, trans-4-{[N-(6-{[N′-(3-cyano-5-trifluoromethylbenzyl)-N′-(2-methyl-2H-tetrazol-5-yl)amino]methyl}indan-5-yl)-N-ethylamino]methyl}cyclohexanecarboxylic acid hydrochloride]
340	CCN(C[C@H]1CC[C@H](C(=O)O)CC1)c1cc2c(cc1CN(Cc1cc(C(F)(F)F)cc(C(F)(F)F)c1)c1ncn(C)n1)CCCC2 [Example 69, trans-4-{[N-(3-{[N′-[3,5-bis(trifluoromethyl)benzyl]-N′-(1-methyl-1H-[1,2,4]triazol-3-yl)amino]methyl}-5,6,7,8-tetrahydronaphthalen-2-yl)-N-ethylamino]methyl}cyclohexanecarboxylic acid hydrochloride]
290	CCN(CCCCC(=O)O)c1cc2c(cc1CN(Cc1cc(C(F)(F)F)cc(C(F)(F)F)c1)c1ccn(C)n1)CCCC2 [Example 65, 5-[N-(3-{[N′-[3,5-bis(trifluoromethyl)benzyl]-N′-(1-methyl-1H-pyrazol-3-yl)amino]methyl}-5,6,7,8-tetrahydronaphthalen-2-yl)-N-ethylamino]pentanoic acid hydrochloride]
280	CCN(C[C@H]1CC[C@H](C(=O)O)CC1)c1cc2c(cc1CN(Cc1cc(C#N)cc(C(F)(F)F)c1)c1nnn(C)n1)CCCC2 [Example 68, trans-4-{[N-(3-{[N′-(3-cyano-5-trifluoromethylbenzyl)-N′-(2-methyl-2H-tetrazol-5-yl)amino]methyl}-5,6,7,8-tetrahydronaphthalen-2-yl)-N-ethylamino]methyl}cyclohexanecarboxylic acid hydrochloride]
260	CCN(C[C@H]1CC[C@H](C(=O)O)CC1)c1cc2c(cc1CN(Cc1cc(C(F)(F)F)cc(C(F)(F)F)c1)c1nnn(C)n1)CCCC2 [Example 67, trans-4-{[N-(3-{[N′-[3,5-bis(trifluoromethyl)benzyl]-N′-(2-methyl-2H-tetrazol-5-yl)amino]methyl}-5,6,7,8-tetrahydronaphthalen-2-yl)-N-ethylamino]methyl}cyclohexanecarboxylic acid hydrochloride]
190	CCN(CC1CCCC1)c1cc2c(cc1CN(Cc1cc(C(F)(F)F)cc(C(F)(F)F)c1)c1nnn(CCO)n1)CCC2 [Example 73, 2-(5-{N-[3,5-bis(trifluoromethyl)benzyl]-N-[6-(N′-cyclopentylmethyl-N′-ethylamino)indan-5-ylmethyl]amino}tetrazol-2-yl)ethanol hydrochloride]
